Reference: patent US12662451B2, “Chemical compounds and uses thereof” (GLAXOSMITHKLINE INTELLECTUAL PROPERTY (NO.4) LIMITED, priority 2023, dated 2026)

Legend:
[1] = tested on: SW48 human colorectal cancer cells (MSI-H cancer cells); assay: SW48 cell viability, CellTiter-Glo, 120 hours (Example B); conditions: Homo sapiens, SW48, 120 h, read-out: SW48 pCC50, SW48 cell viability, 120 hours incubation (converted); Table 2
[2] = target: T1, recombinant full-length WRN protein (1-1432) (Homo sapiens, UniProt Q14191); assay: WRN unwinding activity, fluorogenic 384-well assay (Example A); assay type: biochemical; conditions: WRN unwinding activity, 4 hr; Table 2; read-out: 4 hr UNW pIC50 (converted)
T1 construct: recombinant full-length WRN protein (1-1432)
T1 sequence (Q14191 whole entry): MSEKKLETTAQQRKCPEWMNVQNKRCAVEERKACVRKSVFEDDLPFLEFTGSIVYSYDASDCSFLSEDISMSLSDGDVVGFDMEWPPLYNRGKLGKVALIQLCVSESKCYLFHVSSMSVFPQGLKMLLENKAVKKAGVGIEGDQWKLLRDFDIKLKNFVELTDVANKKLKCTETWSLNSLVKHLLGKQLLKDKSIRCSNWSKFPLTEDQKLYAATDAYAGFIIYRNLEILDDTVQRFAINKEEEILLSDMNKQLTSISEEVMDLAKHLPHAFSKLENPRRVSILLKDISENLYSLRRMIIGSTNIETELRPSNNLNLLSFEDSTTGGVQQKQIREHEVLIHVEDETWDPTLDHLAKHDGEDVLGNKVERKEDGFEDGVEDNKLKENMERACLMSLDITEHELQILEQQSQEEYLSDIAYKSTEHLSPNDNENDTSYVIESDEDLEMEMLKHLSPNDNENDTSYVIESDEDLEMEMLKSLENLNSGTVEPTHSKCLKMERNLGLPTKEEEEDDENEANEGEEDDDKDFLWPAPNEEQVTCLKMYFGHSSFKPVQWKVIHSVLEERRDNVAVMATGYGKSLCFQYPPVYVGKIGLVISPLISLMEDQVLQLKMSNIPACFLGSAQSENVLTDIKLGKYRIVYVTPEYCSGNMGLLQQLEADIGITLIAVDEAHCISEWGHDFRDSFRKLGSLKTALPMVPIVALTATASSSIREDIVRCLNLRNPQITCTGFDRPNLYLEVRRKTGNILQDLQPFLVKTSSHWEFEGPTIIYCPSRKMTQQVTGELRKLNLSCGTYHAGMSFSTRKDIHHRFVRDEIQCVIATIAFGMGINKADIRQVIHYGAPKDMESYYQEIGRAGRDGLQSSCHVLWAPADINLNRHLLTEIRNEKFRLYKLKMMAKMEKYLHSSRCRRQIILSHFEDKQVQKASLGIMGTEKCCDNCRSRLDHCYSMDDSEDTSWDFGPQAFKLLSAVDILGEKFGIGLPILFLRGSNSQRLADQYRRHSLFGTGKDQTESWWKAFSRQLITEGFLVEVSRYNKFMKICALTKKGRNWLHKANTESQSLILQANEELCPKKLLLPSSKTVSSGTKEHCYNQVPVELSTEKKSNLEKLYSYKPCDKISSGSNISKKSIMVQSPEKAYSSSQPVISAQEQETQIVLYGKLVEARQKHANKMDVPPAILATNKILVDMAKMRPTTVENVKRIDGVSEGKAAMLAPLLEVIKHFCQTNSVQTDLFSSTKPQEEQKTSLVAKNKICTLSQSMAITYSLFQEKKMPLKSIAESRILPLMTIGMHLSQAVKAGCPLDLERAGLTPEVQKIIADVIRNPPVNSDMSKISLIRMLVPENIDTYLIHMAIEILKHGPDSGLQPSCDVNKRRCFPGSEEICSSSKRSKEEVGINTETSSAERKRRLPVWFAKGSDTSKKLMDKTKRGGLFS
How it was run: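 200 pM enzyme (2× stock) preincubated with compound 4 h at ambient temperature, then 200 μM ATP and 12 nM quenched TAMRA-labelled dsDNA (2× stocks) added for 60 min; EDTA-quenched. Buffer 25 mM Tris pH 8.0, 5 mM NaCl, 2 mM MgCl2. Fluorescence at 525/598 nm; pIC50 from four-parameter fit.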

Compound | CC50 [1] | IC50 [2]
O=C(O)[C@@H]1[C@@H](c2ccc([C@H]3CCC(F)(F)C3)cc2)CCC[C@H]1C(=O)Nc1ccc(C(F)(F)F)cc1F (racemic) [Example 64, 1:1 Mixture of (1R,2S,6R)-2-(4-((S)-3,3-difluorocyclopentyl)phenyl)-6-((2-fluoro-4-(trifluoromethyl)phenyl)carbamoyl)cyclohexane-1-carboxylic acid AND (1R,2S,6R)-2-(4-((R)-3,3-difluorocyclopentyl)phenyl)-6-((2-fluoro-4-(trifluoromethyl)phenyl)carbamoyl)cyclohexane-1-carboxylic acid] | 15800 nM | 25.1 nM
Cc1nc2cc(S(=O)(=O)N(C)c3ccc([C@H]4CCC[C@@H](C(=O)Nc5ccc(C(C)C)cc5)[C@H]4C(=O)O)cc3)ccc2n1C (racemic) [Example 75, rac-(1R,2S,6R)-2-((4-isopropylphenyl)carbamoyl)-6-(4-((N,1,2-trimethyl-1H-benzo[d]imidazole)-5-sulfonamido)phenyl)cyclohexane-1-carboxylic acid] | 5010 nM | 6.31 nM
Cc1nc2cc(S(=O)(=O)N(C)c3ccc([C@H]4CCC[C@@H](C(=O)Nc5ccc(C(C)C)cc5)[C@@H]4C(=O)O)cc3)ccc2n1C (racemic) [Example 78, rac-(1R,2R,6S)-2-((4-isopropylphenyl)carbamoyl)-6-(4-((N,1,2-trimethyl-1H-benzo[d]imidazole)-5-sulfonamido)phenyl)cyclohexane-1-carboxylic acid] | 1000 nM | 2 nM
Cc1nc2cc(S(=O)(=O)N(C)c3ccc([C@H]4CCC[C@@H](C(=O)Nc5ccc(C(F)(F)F)cc5F)[C@@H]4C(=O)O)cc3)ccc2n1C (racemic) [Example 81, rac-(1R,2R,6S)-2-((2-fluoro-4-(trifluoromethyl)phenyl)carbamoyl)-6-(4-((N,1,2-trimethyl-1H-benzo[d]imidazole)-5-sulfonamido)phenyl)cyclohexane-1-carboxylic acid] | 1260 nM | 7.94 nM
C=C(F)C(=O)Nc1ccc([C@H]2CCC[C@@H](C(=O)Nc3ccc(C(F)(F)F)cc3F)[C@@H]2C(=O)O)cc1 (racemic) [Example 227, rac-(1R,2R,6S)-2-((2-fluoro-4-(trifluoromethyl)phenyl)carbamoyl)-6-(4-(2-fluoroacrylamido)phenyl)cyclohexane-1-carboxylic acid] | 15800 nM | 79.4 nM
Cc1nc2cc(S(=O)(=O)N(C)c3ccc([C@H]4COC[C@@H](C(=O)Nc5ccc(C(F)(F)F)cc5F)[C@@H]4C(=O)O)cc3)ccc2n1C (racemic) [Example 232, rac-(3R,4S,5R)-3-((2-fluoro-4-(trifluoromethyl)phenyl)carbamoyl)-5-(4-((N,1,2-trimethyl-1H-benzo[d]imidazole)-5-sulfonamido)phenyl)tetrahydro-2H-pyran-4-carboxylic acid] | 1260 nM | 1.58 nM
Cc1nc2cc(S(=O)(=O)N(C)c3ccc([C@H]4C[C@@](C)(O)C[C@@H](C(=O)Nc5ccc(C(F)(F)F)cc5F)[C@@H]4C(=O)O)cc3)ccc2n1C (racemic) [Example 356, rac-(1R,2R,4R,6S)-2-((2-fluoro-4-(trifluoromethyl)phenyl)carbamoyl)-4-hydroxy-4-methyl-6-(4-((N,1,2-trimethyl-1H-benzo[d]imidazole)-5-sulfonamido)phenyl)cyclohexane-1-carboxylic acid] | 1260 nM | 12.6 nM
Cc1nc2cc(S(=O)(=O)N(C)c3ccc([C@H]4C[C@](C)(O)C[C@@H](C(=O)Nc5ccc(C(F)(F)F)cc5F)[C@@H]4C(=O)O)cc3)ccc2n1C (racemic) [Example 357, rac-(1R,2R,4S,6S)-2-((2-fluoro-4-(trifluoromethyl)phenyl)carbamoyl)-4-hydroxy-4-methyl-6-(4-((N,1,2-trimethyl-1H-benzo[d]imidazole)-5-sulfonamido)phenyl)cyclohexane-1-carboxylic acid] | 1000 nM | 10 nM
CCO[C@@H]1CC[C@@H](C(=O)Nc2ccc(C(F)(F)F)cc2F)[C@H](C(=O)O)[C@H]1c1ccc(N(C)S(=O)(=O)c2ccc3c(c2)nc(C)n3C)cc1 (racemic) [Example 371, rac-(1R,2S,3R,6R)-3-ethoxy-6-((2-fluoro-4-(trifluoromethyl)phenyl)carbamoyl)-2-(4-((N,1,2-trimethyl-1H-benzo[d]imidazole)-5-sulfonamido)phenyl)cyclohexane-1-carboxylic acid] | 1000 nM | 6.31 nM
[2H]C([2H])([2H])O[C@@H]1C[C@H](C(=O)Nc2ccc(C(F)(F)F)cc2F)[C@@H](C(=O)O)[C@H](c2ccc(N(C)S(=O)(=O)c3ccc4c(c3)nc(C)n4C)cc2)C1 (relative stereo) [Example 149, rel-(1R,2R,4R,6S)-2-((2-fluoro-4-(trifluoromethyl)phenyl)carbamoyl)-4-methoxy-6-(4-((N,1,2-trimethyl-1H-benzo[d]imidazole)-5-sulfonamido)phenyl)cyclohexane-1-carboxylic acid] | 200 nM | 1.58 nM
CCO[C@@H]1C[C@H](C(=O)Nc2ccc(C(F)(F)F)cn2)[C@@H](C(=O)O)[C@H](c2ccc(N(C)S(=O)(=O)c3ccc4c(c3)nc(C)n4C)cc2)C1 (relative stereo) [Example 156, rel-(1R,2R,4R,6S)-4-ethoxy-2-((5-(trifluoromethyl)pyridin-2-yl)carbamoyl)-6-(4-((N,1,2-trimethyl-1H-benzo[d]imidazole)-5-sulfonamido)phenyl)cyclohexane-1-carboxylic acid] | 25100 nM | 126 nM
Cc1nc2cc(S(=O)(=O)N(C)c3cnc([C@@H]4CCC[C@H](C(=O)Nc5ccc(C(F)(F)F)cc5F)[C@H]4C(=O)O)cn3)ccc2n1C (relative stereo) [Example 165, rel-(1R,2R,6S)-2-((2-fluoro-4-(trifluoromethyl)phenyl)carbamoyl)-6-(5-((N,1,2-trimethyl-1H-benzo[d]imidazole)-5-sulfonamido)pyrazin-2-yl)cyclohexane-1-carboxylic acid] | 25100 nM | 25.1 nM
Cc1nc2cc(S(=O)(=O)N(C)c3ccc([C@H]4C[C@@H](OCC5COC5)C[C@@H](C(=O)Nc5ccc(C(F)(F)F)cc5F)[C@@H]4C(=O)O)cc3)ccc2n1C (relative stereo) [Example 282, rel-(1R,2R,4R,6S)-2-((2-fluoro-4-(trifluoromethyl)phenyl)carbamoyl)-4-(oxetan-3-ylmethoxy)-6-(4-((N,1,2-trimethyl-1H-benzo[d]imidazole)-5-sulfonamido)phenyl)cyclohexane-1-carboxylic acid] | 63.1 nM | 1.58 nM
COC12CC(CO[C@@H]3C[C@H](C(=O)Nc4ccc(C(F)(F)F)cc4F)[C@@H](C(=O)O)[C@H](c4ccc(N(C)S(=O)(=O)c5ccc6c(c5)nc(C)n6C)cc4)C3)(C1)C2 (relative stereo) [Example 331, rel-(1R,2R,4R,6S)-2-((2-fluoro-4-(trifluoromethyl)phenyl)carbamoyl)-4-((3-methoxybicyclo[1.1.1]pentan-1-yl)methoxy)-6-(4-((N,1,2-trimethyl-1H-benzo[d]imidazole)-5-sulfonamido)phenyl)cyclohexane-1-carboxylic acid] | 20000 nM | 251 nM
Cc1nc2cc(S(=O)(=O)N(C)c3ccc([C@H]4CCC[C@@H](C(=O)N[C@H]5CCCC[C@@H]5C)[C@@H]4C(=O)O)cc3)ccc2n1C [Example 197, (1R,2R,6S)-2-(((1S,2S)-2-methylcyclohexyl)carbamoyl)-6-(4-((N,1,2-trimethyl-1H-benzo[d]imidazole)-5-sulfonamido)phenyl)cyclohexane-1-carboxylic acid] |  | 2510 nM
Cc1nc2cc(S(=O)(=O)N(C)c3ccc([C@H]4CCC[C@@H](C(=O)NC56CC(C7CCC7)(C5)C6)[C@@H]4C(=O)O)cc3)ccc2n1C [Example 198, (1R,2R,6S)-2-((3-cyclobutylbicyclo[1.1.1]pentan-1-yl)carbamoyl)-6-(4-((N,1,2-trimethyl-1H-benzo[d]imidazole)-5-sulfonamido)phenyl)cyclohexane-1-carboxylic acid] |  | 5.01 nM
Cc1nc2cc(S(=O)(=O)N(C)c3ccc([C@H]4CCC[C@@H](COc5ccc(C(F)(F)F)cc5)[C@@H]4C(=O)O)cc3)ccc2n1C [Example 205, (1R,2R,6S)-2-((4-(trifluoromethyl)phenoxy)methyl)-6-(4-((N,1,2-trimethyl-1H-benzo[d]imidazole)-5-sulfonamido)phenyl)cyclohexane-1-carboxylic acid] |  | 25.1 nM
C#CC(=O)N(C)c1ccc([C@H]2CCC[C@@H](C(=O)Nc3ccc(C(F)(F)F)cc3F)[C@@H]2C(=O)O)cc1 [Example 229, (1R,2R,6S)-2-((2-fluoro-4-(trifluoromethyl)phenyl)carbamoyl)-6-(4-(N-methylpropiolamido)phenyl)cyclohexane-1-carboxylic acid] |  | 316 nM
CN(c1ccc([C@H]2CCC[C@@H](C(=O)Nc3ccc(C(F)(F)F)cc3F)[C@@H]2C(=O)O)cc1)S(=O)(=O)c1ccc(C=O)c(O)c1 [Example 276, (1R,2R,6S)-2-((2-fluoro-4-(trifluoromethyl)phenyl)carbamoyl)-6-(4-((4-formyl-3-hydroxy-N-methylphenyl)sulfonamido)phenyl)cyclohexane-1-carboxylic acid] |  | 6.31 nM
Cc1nc2cc(S(=O)(=O)N(C)c3ccc([C@@H]4C[C@H](N5CCC(F)(F)C5)C[C@H](C(=O)Nc5ccc(C(F)(F)F)cc5F)[C@H]4C(=O)O)cc3)ccc2n1C [Example 305, (1S,2S,4S,6R)-4-(3,3-difluoropyrrolidin-1-yl)-2-((2-fluoro-4-(trifluoromethyl)phenyl)carbamoyl)-6-(4-((N,1,2-trimethyl-1H-benzo[d]imidazole)-5-sulfonamido)phenyl)cyclohexane-1-carboxylic acid] |  | 316 nM
